Results published in patent publication US11845774B2, “Sterol derivatives and preparation method and uses thereof” (BEIJING PEKING UNIVERSITY WBL BIOTECH CO., LTD., priority 2011, dated 2023).

Experiments:
[1] = test system: mice melanoma cell B16-F10; test: MTT test of inhibiting cancer cells, B16-F10; assay type: cell-based; details: Mus musculus, 72 hours, FIG. 8, read-out: IC50 value, growth of B16-F10
Method: (§1) Cancer cells of exponential growth phase were inoculated on 96-well plate, 2×10^4 cells/well, added with drug until final drug concentrations were: 500, 250, 125, 62.5, 31.25, 15.625 and 7.8125 μg/mL, cultured at 37° C. in 5% CO2 cell culture incubator for 72 hours, then added with MTT, 10 μL/well, incubated in dark at 37° C. for 4 hours, culture medium was removed, 150 μL of DMSO or acidified isopropanol was added, vibrated for 5 minutes, and then OD values were measured under wavelength of 570 nm. This was repeated for 3 times, and a blank control was set. These cell strains used the same culture medium, i.e., RPMI1640 culture medium containing 10% fetal bovine serum and 1% double antibody (penicillin and steptomycin).
(§2) Calculation Formula: Cell survival rate=(OD value of test group/OD value of control group)×100%.

[2] = molecular target: T1, Porcine pancreatic lipase (Sus scrofa, UniProt P00591); test: Test of activity of inhibiting lipase (copper oleate colorimetry, olive oil substrate); assay type: biochemical, pig; details: for Absorbance: 714 nm, blank control 0.6680; for Enzyme activity: blank control 1.69; for Concentration of generated oleic acid: blank control 2.75
T1 construct: purchased Sigma
T1 sequence (P00591 1-450): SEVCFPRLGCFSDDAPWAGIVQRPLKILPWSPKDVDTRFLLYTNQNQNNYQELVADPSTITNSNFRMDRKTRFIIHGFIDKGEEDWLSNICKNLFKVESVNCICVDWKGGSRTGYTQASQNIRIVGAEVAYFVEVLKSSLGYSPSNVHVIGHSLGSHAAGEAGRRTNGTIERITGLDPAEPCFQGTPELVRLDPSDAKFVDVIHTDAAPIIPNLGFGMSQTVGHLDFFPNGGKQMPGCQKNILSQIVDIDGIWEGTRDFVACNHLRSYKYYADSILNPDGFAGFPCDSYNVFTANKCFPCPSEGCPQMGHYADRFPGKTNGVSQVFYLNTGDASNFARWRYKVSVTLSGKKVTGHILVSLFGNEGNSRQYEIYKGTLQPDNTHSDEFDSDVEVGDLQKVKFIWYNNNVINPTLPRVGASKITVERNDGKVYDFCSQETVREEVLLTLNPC
Method: 2.1 Preparation of light absorbance working curve for fatty acid: a series of oleic acid-toluene solutions with different concentrations (0-3.5 mmol/L, separately being 0, 0.225, 0.45, 0.675, 0.9, 1.125, 1.35, 1.8, 2.25, 2.7, and 3.5 mmol/L), 4 mL of each was taken and placed in conical flask, added with 1 mL of color developing agent, stirred with magnetic force for 3 minutes, oleic acid molecules and copper ions formed a green complex compound, after centrifugation, organic phase of upper layer was taken and measured at 714 nm to determine light absorbance.
2.2 Enzyme solution was 0.5 mg/mL pancreatic lipase solution; buffer solution was 0.07M NaH2PO4—K2HPO4 phosphate buffer solution (pH 7.0); color developing agent was 5% copper acetate solution, which was regulated with pyridine to have pH 6.1.
3 mL of 0.07M phosphate buffer solution and 1 mL of olive oil were pre-heated at a constant temperature of 37° C. for 5 minutes in water bath under agitation with a magnetic stirrer, added with 1.3 mL of enzyme solution (negative control was that without enzyme inhibitor; positive control is that added with 100 μL of 0.1 mg/mL orlistat solution; […]), stirred with magnetic force for 10 minutes, immediately added with 8 mL of toluene, stirred continuously for 2 minutes, the reaction was terminated, the generated oleic acid was extracted. The solutions were transferred to centrifuge tube, centrifuged under 4000 rpm for 10 minutes, and the organic phase and water phase were layered and clarified. 4 mL of the upper layer organic phase was taken and placed in a small conical flask, added with 1 mL of color developing agent, stirred with magnetic stirrer for 3 minutes, the generated oleic acid reacted with copper ions to form green complex compound. After centrifugation under 4000 rpm for 10 minutes, the upper layer of toluene solution containing copper oleate was taken, and measured with a spectrophotometer at 714 nm to determine its light absorbance. A blank solution without lipase was prepared as control by the same method, and concentration of fatty acid could be determined by referring to light absorbance working curve of oleic acid.
Enzyme activity unit of lipase was defined as follows: an enzyme amount to release 1 μmol fatty acid under certain condition was defined as 1 unit of lipase activity (U).
The following formula was used to calculate enzyme activity: X=(cV)/(tV′)
wherein: X represents enzyme activity of lipase, U/mL; c represents concentration of fatty acid, […]; V represents volume of fatty acid solution, mL; V′ represents amount of enzyme solution, mL; t represents action time, minute. Inhibition rate=[(enzyme activity of lipase−enzyme activity of lipase after inhibition)/enzyme activity of lipase]×100%

[3] = test system: human colon cancer cell strain HCT116; test: MTT test of inhibiting cancer cells, HCT116; assay type: cell-based; details: 72 hours, FIG. 1, concentration-effect relationship
Method: as §1, §2

HepG2 cells = test: MTT test of inhibiting cancer cells, HepG2; assay type: cell-based; details: Homo sapiens, 72 hours, FIG. 3, read-out: IC50 value, growth of human hepatoma cell line
Method: as §1, §2

[4] = final concentration of inhibitor in the system 111 μg/mL
[5] = final concentration of inhibitor in the system 166 μg/mL
[6] = final concentration of inhibitor in the system 203 μg/mL
[7] = final concentration of inhibitor in the system 240 μg/mL
[8] = final concentration of inhibitor in the system 333 μg/mL

## C[C@@H](C(O)C1OC2C[C@H]3C4=CC=C5CC(O)CC[C@]5(C)[C@H]4CC[C@]3(C)[C@H]2[C@@]1(C)O)C(C)(C)O (stereo partly drawn) [Compound of Formula II, 16,22-epoxy-ergosta-5,7-dien-3,20,23,25-tetraol]
[1]
  IC50: ~62.5 mg/L
[2]; [4]
  Absorbance: 0.5665
  Inhibition rate: 15.38%
  Enzyme activity: 1.43 U/mL
  Concentration of generated oleic acid: 2.32 mM
[2]; [5]
  Absorbance: 0.5035
  Inhibition rate: 24.85%
  Enzyme activity: 1.27 U/mL
  Concentration of generated oleic acid: 2.06 mM
[2]; [6]
  Absorbance: 0.3998
  Inhibition rate: 40.83%
  Enzyme activity: 1.00 U/mL
  Concentration of generated oleic acid: 1.63 mM
[2]; [7]
  Absorbance: 0.2743
  Inhibition rate: 59.76%
  Enzyme activity: 0.68 U/mL
  Concentration of generated oleic acid: 1.10 mM
[2]; [8]
  Absorbance: 0.2611
  Inhibition rate: 62.13%
  Enzyme activity: 0.64 U/mL
  Concentration of generated oleic acid: 1.04 mM
[2]; read-out: IC50 value, inhibition of activity of lipase (converted)
  IC50: ~478 µM
[3]
  inhibition effect on growth of HCT116 (in words): inhibition effect
HepG2 cells
  IC50: ~200 mg/L
